How the values were obtained:
Format in all cases: in vivo, human
[1] = system: patients with symptomatic pulmonary embolism with or without symptomatic deep venous thrombosis; assay: CASSIOPEA (EFC6034) phase III clinical trial: deaths; conditions: overall
Description: (§1) A blinded central and independent adjudication committee (CIAC) assesses PE (and DVT when applicable), all episodes of locally confirmed or doubtful PE/DVT recurrences, clinically relevant bleedings and deaths. Adjudication results are the basis for the final analyses.

[2] = system: patients with symptomatic pulmonary embolism with or without symptomatic deep venous thrombosis; assay: CASSIOPEA (EFC6034) phase III clinical trial: symptomatic recurrent PE/DVT (efficacy); conditions: for Hazard ratio, symptomatic recurrent PE/DVT: idrabiotaparinux vs warfarin
Procedure: Patients with confirmed symptomatic PE with or without acute symptomatic DVT are eligible for this trial. Treatment with a therapeutic dose of any LMWH or UFH or fondaparinux is allowed only within the 36 hours immediately preceding randomization. Randomization is performed as soon as the diagnosis of PE (and DVT if concomitant suspected symptomatic DVT) is confirmed.
as §1
Patients in the 3-month stratum have an additional 13-week observational period after cessation of study treatment. Patients in the 6-month stratum have a 13-week up to 26-week observational period.
Injections of SSR126517E (or its placebo) is started 12 h after the last post-randomization enoxaparin administration. SSR126517E (or its placebo) is administered s.c. once-weekly for a period of 3 or 6 months. All patients receive a first 0.5 ml injection (3.0 mg in the SSR126517E group). The following injections are also 0.5 ml, except in patients with severe renal insufficiency (defined as creatinine clearance <30 mL/min), who decrease to a dosage of 0.3 ml (1.8 mg in the SSR126517E group).
The primary efficacy outcome is symptomatic recurrent PE/DVT (fatal or not), as validated by the CIAC, within 99 days for patients from both strata (3- and 6-month treatments).
A secondary efficacy outcome for patients in the 6-month stratum is symptomatic recurrent PE/DVT, as validated by the CIAC, within 190 days.
There are 2 additional efficacy outcomes: • the time to first symptomatic recurrent PE/DVT (fatal or non fatal) within the patient's treatment period, i.e. a combined analysis of the 3-and 6-month strata patients; • the separate components of the efficacy outcomes within 99 days (all patients) and within 190 days (6-month stratum patients only).
The definitions to confirm a suspected symptomatic episode of recurrent PE/DVT are as follows:
Efficacy analyses are performed on the—All-randomized—population (patients with a patient number and an allocated treatment number recorded in the IVRS database).
The secondary efficacy outcome (VTE recurrence within 190 days) for patients in the 6-month stratum is analyzed using the same method and applying the same non-inferiority margin.
Time to first symptomatic recurrent PE/DVT within the patient's study treatment period for all patients is analyzed using Cox's proportional hazards model, stratified on intended treatment duration.

[3] = system: patients with symptomatic pulmonary embolism with or without symptomatic deep venous thrombosis; assay: CASSIOPEA (EFC6034) phase III clinical trial: clinically relevant bleeding (safety); conditions: for Hazard ratio, clinically relevant bleeding: idrabiotaparinux vs warfarin
Description: According to the instant invention, the term “bleedings” designates any clinically relevant bleeding (i.e. major or clinically relevant non-major hemorrhage).
According to the instant invention, the term “major bleedings” designates any of the following clinical situations: • bleeding associated with a fall in hemoglobin of 2 g per deciliter or more, • bleeding that led to a transfusion of 2 or more units of packed red cells or whole blood (a red cell unit being defined as the quantity of red cells obtained from or corresponding to approximately 500 ml of whole blood), • bleeding that involved a critical organ (intracranial, intraocular, intraspinal, retroperitoneal or pericardial), • bleeding that contributed to death.
as §1
The principal safety outcome is any clinically relevant bleeding as classified by the CIAC (i.e. major bleeding and other clinically relevant non-major bleeding).
Bleeding analyses are also performed on the—All-randomized—population. Other safety analyses are performed on the—All-treated—population.
Rates of clinically relevant bleedings are calculated in each treatment group at 3 months (99 days) and 6 months (190 days) and compared between treatment groups using a Mantel-Haenszel chi-square stratified on intended treatment duration. Cumulative incidences of clinically relevant bleedings during the combined 3-month and 6-month period and up to the end of study are described by treatment group using the Kaplan Meier method.

[4] = system: patients with symptomatic pulmonary embolism with or without symptomatic deep venous thrombosis; assay: CASSIOPEA (EFC6034) phase III clinical trial: benefit-risk assessment (PE, DVT or major bleeding composite); conditions: Randomized population
Description: Tables 13 and 14 show the incidence of pulmonary embolism, deep venous thrombosis or major bleedings (composite endpoint) in the randomized population in the treatment phase (3-month or 6-month treatment with idrabiotaparinux) and up to the end of the study (assessment at 12 months).

[5] = Randomized population in the 6-month stratum
[6] = Randomized population, All patients
[7] = Randomized population, Patients with VKA beyond D99/D190
[8] = Randomized population, Patients with no VKA beyond D99/D190
[9] = Randomized population, or death for which PE could not be ruled out
[10] = combined 3-month and 6-month period
[11] = combined 3-month and 6-month periods, time-to-event analysis (Kaplan-Meier)
[12] = treatment period plus 3 to 6-month post-treatment follow-up (up to end of study)
[13] = Cox proportional hazards model, stratified

Structure (SMILES): CO[C@H]1O[C@H](COS(=O)(=O)O)[C@@H](O[C@@H]2O[C@@H](C(=O)O)[C@@H](O[C@H]3O[C@H](COS(=O)(=O)O)[C@@H](O[C@@H]4O[C@H](C(=O)O)[C@@H](O[C@H]5O[C@H](COS(=O)(=O)O)[C@@H](OC)[C@H](OC)[C@H]5NC(=O)CCCCCNC(=O)CCCC[C@@H]5SC[C@@H]6NC(=O)N[C@@H]65)[C@H](OC)[C@H]4OC)[C@H](OS(=O)(=O)O)[C@H]3OS(=O)(=O)O)[C@H](OC)[C@H]2OC)[C@H](OS(=O)(=O)O)[C@H]1OS(=O)(=O)O [Idrabiotaparinux, idrabiotaparinux]
- Patients who died on study [1]: 5.9%
- DVT only within 190 days from randomization: Patients with event ([2]; 6-month stratum): 7 (0.6%) n (%)
- Non-fatal PE within 190 days from randomization: Patients with event ([2]; 6-month stratum): 9 (0.7%) n (%)
- Symptomatic recurrent PE/DVT (fatal or not) from randomization to end of study: Patients with event ([2]; 6-month stratum, All patients): 37 (2.9%) n (%)
- Symptomatic recurrent PE/DVT (fatal or not) from randomization to end of study: Patients with event ([2]; 6-month stratum, Patients with VKA beyond D190): 10 (3.2%) n (%)
- Symptomatic recurrent PE/DVT (fatal or not) from randomization to end of study: Patients with event ([2]; 6-month stratum, Patients with no VKA beyond D190): 27 (2.8%) n (%)
- Reducing the risk of symptomatic recurrent PE/DVT up to Day 190 (non-inferiority) ([2]; 6-month stratum, non-inferiority margin 2.0): at least as effective as warfarin
- Fatal PE within 190 days from randomization: Patients with event ([2]; 6-month stratum, or death for which PE could not be ruled out): 13 (1.0%) n (%)
- Patients who experienced DVT up to Day 190 ([2]; 6-month stratum, up to Day 190): 0.6%
- DVT only up to the end of study: Patients with event ([2]; Randomized population): 10 (0.6%) n (%)
- DVT only within 99 days from randomization: Patients with event ([2]; Randomized population): 5 (0.3%) n (%)
- Non-fatal PE up to the end of study: Patients with event ([2]; Randomized population): 16 (1.0%) n (%)
- Non-fatal PE within 99 days from randomization: Patients with event ([2]; Randomized population): 13 (0.8%) n (%)
- Symptomatic recurrent PE/DVT (fatal or not) within 190 days from randomization: Patients with event [2, 5]: 29 (2.3%) n (%)
- Symptomatic recurrent PE/DVT within 190 days: Idrabiotaparinux vs. Warfarin odds ratio [2, 5]: 0.80
- Symptomatic recurrent PE/DVT (fatal or not) from D100/D191 to end of study: Patients with event [2, 6]: 9 (0.6%) n (%)
- Symptomatic recurrent PE/DVT (fatal or not) from randomization to end of study: Patients with event [2, 6]: 48 (3.0%) n (%)
- Symptomatic recurrent PE/DVT within 99 days: Idrabiotaparinux vs. Warfarin odds ratio ([2]; Randomized population, Mantel-Haenszel, stratified on intended treatment duration): 0.79
- Symptomatic recurrent PE/DVT (fatal or not) from D100/D191 to end of study: Patients with event [2, 7]: 4 (1.0%) n (%)
- Symptomatic recurrent PE/DVT (fatal or not) from randomization to end of study: Patients with event [2, 7]: 12 (3.1%) n (%)
- Symptomatic recurrent PE/DVT (fatal or not) from D100/D191 to end of study: Patients with event [2, 8]: 5 (0.5%) n (%)
- Symptomatic recurrent PE/DVT (fatal or not) from randomization to end of study: Patients with event [2, 8]: 36 (3.0%) n (%)
- Fatal PE up to the end of study: Patients with event [2, 9]: 22 (1.4%) n (%)
- Fatal PE within 99 days from randomization: Patients with event [2, 9]: 16 (1.0%) n (%)
- Symptomatic recurrent PE/DVT (fatal or not) within 99 days from randomization: Patients with event ([2]; Randomized population, within 99 days): 34 (2.1%) n (%)
- Reducing the risk of symptomatic recurrent PE/DVT up to Day 99 (non-inferiority) ([2]; all randomized population, non-inferiority margin 2.0): at least as effective as warfarin
- Hazard ratio, symptomatic recurrent PE/DVT [2, 10]: 0.77
- Cumulative incidence of symptomatic recurrent PE/DVT at Day 99 [2, 11]: 2.2%
- Cumulative incidence of symptomatic recurrent PE/DVT at Day 190 [2, 11]: 2.6%
- Cumulative incidence rate of symptomatic recurrent PE/DVT at Day 360 [2, 12]: 3.1%
- Patients who experienced DVT up to Day 99 ([2]; up to Day 99): 0.3%
- Patients who experienced DVT up to the end of study ([2]; up to the end of study): 0.6%
- Patients who experienced non-fatal PE up to the end of study ([2]; up to the end of study): 1.0%
- Hazard ratio, symptomatic recurrent PE/DVT ([2]; up to the end of the study): 0.49
- Risk reduction in the occurrence of symptomatic recurrent PE/DVT ([2]; up to the end of the study, vs warfarin): 51%
- Any clinically relevant bleeding within 190 days: Idrabiotaparinux vs. Warfarin odds ratio ([3]; 6-month stratum): 0.81
- Clinically relevant bleedings up to Day 190 ([3]; 6-month stratum): 6.6%
- Fatal bleeding within 190 days from randomization: Patients with event ([3]; 6-month stratum): 7 (0.6%) n (%)
- Fatal bleeding within 190 days: Idrabiotaparinux to Warfarin odds ratio (95% CI) ([3]; 6-month stratum): 1.40 (0.44 to 4.42)
- Intracranial haemorrhage (fatal or not) within 190 days from randomization: Patients with event ([3]; 6-month stratum): 8 (0.6%) n (%)
- Intracranial haemorrhage (fatal or not) within 190 days: Idrabiotaparinux to Warfarin odds ratio (95% CI) ([3]; 6-month stratum): 1.33 (0.46 to 3.85)
- Major bleeding within 190 days from randomization: Patients with event ([3]; 6-month stratum): 24 (1.9%) n (%)
- Major bleeding within 190 days: Idrabiotaparinux to Warfarin odds ratio (95% CI) ([3]; 6-month stratum): 0.66 (0.39 to 1.11)
- Patients who experienced a major bleeding up to Day 190 ([3]; 6-month stratum): 1.9%
- Any clinically relevant bleeding within 99 days from randomization: Patients with event ([3]; Randomized population): 72 (4.5%) n (%)
- Fatal bleeding within 99 days from randomization: Patients with event ([3]; Randomized population): 3 (0.2%) n (%)
- Fatal bleeding within 99 days: Idrabiotaparinux to Warfarin odds ratio (95% CI) ([3]; Randomized population): 0.50 (0.13 to 2.01)
- Intracranial haemorrhage (fatal or not) within 99 days from randomization: Patients with event ([3]; Randomized population): 4 (0.3%) n (%)
- Intracranial haemorrhage (fatal or not) within 99 days: Idrabiotaparinux to Warfarin odds ratio (95% CI) ([3]; Randomized population): 0.57 (0.17 to 1.96)
- Major bleeding within 99 days from randomization: Patients with event ([3]; Randomized population): 20 (1.3%) n (%)
- Major bleeding within 99 days: Idrabiotaparinux to Warfarin odds ratio (95% CI) ([3]; Randomized population): 0.51 (0.30 to 0.88)
- Any clinically relevant bleeding within 190 days from randomization: Patients with event [3, 5]: 84 (6.6%) n (%)
- Any clinically relevant bleeding within 99 days: Idrabiotaparinux vs. Warfarin odds ratio ([3]; Randomized population, Mantel-Haenszel, stratified): 0.67
- Major bleeding within 99 days: Idrabiotaparinux to Warfarin odds ratio (95% CI) ([3]; Randomized population, listed as idrabiotaparinux): 0.51
- Hazard ratio, clinically relevant bleeding [3, 10]: 0.70
- Cumulative incidence of clinically relevant bleeding at Day 99 [3, 11]: 4.6%
- Cumulative incidence of clinically relevant bleeding at Day 190 [3, 11]: 6.6%
- Cumulative incidence rate of clinically relevant bleeding at Day 360 [3, 12]: 8.3%
- Incidence of clinically relevant bleeding up to Day 99 ([3]; up to Day 99): 4.5%
- Patients who experienced a major bleeding up to Day 99 ([3]; up to Day 99): 1.3%
- Hazard ratio, clinically relevant bleeding ([3]; up to the end of study): 0.79
- PE, DVT or major bleeding in the combined 3-month and 6-month period: Idrabiotaparinux vs. Warfarin Odds ratio [4, 13]: 0.66
- PE, DVT or major bleeding up to the end of study: Idrabiotaparinux vs. Warfarin Odds ratio [4, 13]: 0.54
- PE, DVT or major bleeding in the combined 3-month and 6-month period: Patients with event ([4]; composite endpoint): 65 (4.1%) n (%)
- PE, DVT or major bleeding up to the end of study: Patients with event ([4]; composite endpoint): 82 (5.1%) n (%)

Source: patent US20130316965A1, “IDRABI[…] THE TREATMENT OF PULMONARY EMBOLISM AND FOR THE SECONDARY PREVENTION OF VENOUS THRO[…]” (priority 2011, published 2013)
